Reference: ChEMBL document CHEMBL5303304, “EUbOPEN Chemogenomics Library - IncuCyte” (2023)
Values joined by “and” are separate entries in the source; they are usually repeats but may differ in a detail not shown here. Equal values may be shown once.

Experiments:
Type in all cases: toxicity, cell-based
[1] = test system: U2OS; test: Incucyte cell viability with U2OS; details: human, 10 µM, compound concentration 10 uM
[2] = test system: Fibroblast; test: Incucyte cell viability with human fibroblast; details: 10 µM, compound concentration 10 uM
[3] = test system: HEK-293T; test: Incucyte cell viability with HEK293T; details: human, 10 µM, compound concentration 10 uM
Also: unitless GR value; below 1 slowed growth and below 0 cell loss.

SMILES | Growth Rate ([1]; 6 h, replicate number 1) | Growth Rate ([1]; 12 h, replicate number 1) | Growth Rate ([1]; 12 h, replicate number 2) | Growth Rate ([1]; 18 h, replicate number 1) | Growth Rate ([1]; 24 h, replicate number 1) | Growth Rate ([2]; 0 h, replicate number 1) | Growth Rate ([2]; 18 h, replicate number 2) | Growth Rate ([2]; 24 h, replicate number 1) | Growth Rate ([3]; 0 h, replicate number 1) | Growth Rate ([3]; 6 h, replicate number 2) | Growth Rate ([1]; 0 h, replicate number 1) | Growth Rate ([1]; 6 h, replicate number 2) | Growth Rate ([1]; 18 h, replicate number 2) | Growth Rate ([2]; 18 h, replicate number 1) | Growth Rate ([2]; 24 h, replicate number 2) | Growth Rate ([3]; 24 h, replicate number 2) | Growth Rate ([1]; 0 h, replicate number 2) | Growth Rate ([2]; 0 h, replicate number 2) | Growth Rate ([3]; 0 h, replicate number 2) | Growth Rate ([2]; 6 h, replicate number 1) | further results
CC(C)[C@@H]1CC[C@@H](C)C[C@@H]1P(=O)(c1ccccc1)c1ccccc1 | 0.44 | 0.44 | 0.96 | 0.78 | 0.74 | 0.25 | 0.92 | 0.9 | 0.49 | 0.56 |  |  |  |  |  |  |  |  |  |  | Growth Rate ([1]; 24 h, replicate number 2): 1
N[C@@H](Cn1cc(F)c(=O)[nH]c1=O)C(=O)O |  |  | 0.81 |  |  |  | 0.82 | 0.97 | 0.81 | 0.86 | 0.45 | 0.7 | 0.8 | 0.16 | 0.99 | 0.96 |  |  |  |  | Growth Rate ([1]; 24 h, replicate number 2): 0.83; Growth Rate ([2]; 12 h, replicate number 1): -0.98; Growth Rate ([3]; 6 h, replicate number 1): 0.82; Growth Rate ([3]; 12 h, replicate number 1): 0.99
COc1ccc(CC(=O)NCc2ccccc2-c2ccccc2C(=O)NCc2ccc(F)cc2F)cc1 |  |  |  |  | 0.89 |  | 0.88 |  | 0.52 |  | -0.79 |  |  | 0.19 | 0.91 |  | -0.96 | -0.36 |  |  | 
O=c1cc(-c2cc(F)c(Cl)nc2Cl)[nH]c2c(-c3ccccc3)c(C(F)(F)F)nn12 | 0.78 |  |  |  |  | -0.22 |  | 0.39 | 0.89 | 0.52 |  |  | -0.41 | 0.57 | 1 | 0.94 |  |  |  |  | Growth Rate ([2]; 12 h, replicate number 1): -0.36; Growth Rate ([3]; 12 h, replicate number 2): 0.74; Growth Rate ([3]; 18 h, replicate number 1): 0.93; Growth Rate ([3]; 18 h, replicate number 2): 0.98; Growth Rate ([3]; 24 h, replicate number 1): 0.8
O=S1(=O)NCN(C2CC2)c2ccc(F)cc21 | 0.68 |  |  | 0.99 | 0.9 | 0.5 |  | 0.6 | 0.98 | 0.62 | 0.05 | 0.82 | 0.88 | -0.11 | 0.91 |  |  | 0.39 | 0.78 |  | Growth Rate ([1]; 24 h, replicate number 2): 0.93
O=C(O)c1ccc(S(=O)(=O)N(Cc2ccc(OC(F)(F)F)cc2)c2ncc(C(F)(F)F)cc2Cl)cc1 |  |  | 0.75 |  |  | 0.4 |  | 0.93 | 0.66 | 0.33 |  | 0.99 | 0.93 | 0.16 |  | 0.93 |  | -0.5 |  | 0.15 | Growth Rate ([1]; 24 h, replicate number 2): 0.85; Growth Rate ([3]; 12 h, replicate number 2): 0.79; Growth Rate ([3]; 18 h, replicate number 2): 0.81
Nc1nc2cc(-c3cc(Cl)ccc3Oc3cc(F)c(S(=O)(=O)Nc4ncns4)cc3F)ccc2[nH]1 | 0.51 | 0.84 |  | 0.76 | 0.89 |  |  | 0.45 | 0.66 |  | -0.72 |  |  |  | 0.9 |  | 0.2 | -0.38 | 0.52 | -0.93 | 
COc1cc(Nc2ccc([N+](=O)[O-])cc2C(=O)O)cc2ccccc12 |  |  |  |  | 0.98 |  | 0.45 | 0.68 | 0.41 |  | 0.77 |  |  | -0.31 | 0.63 |  | -0.1 |  | 0.13 |  | Growth Rate ([2]; 6 h, replicate number 2): -0.6; Growth Rate ([2]; 12 h, replicate number 2): 0.4
O=c1ccc2c(OCCCCOc3ccccc3)c3ccoc3cc2o1 | 0.73 |  |  | 0.99 | 0.92 |  |  | 0.92 | 0.49 |  | 0.26 | 0.99 |  |  |  |  |  |  | 0.37 |  | Growth Rate ([2]; 12 h, replicate number 2): 0.95
CC(C)C[C@H](NC(=O)c1cc2ccccc2s1)C(=O)N1CCN(C(=O)[C@H](CO)NS(=O)(=O)c2ccc(Cl)cc2Cl)CC1 | 0.27 | 0.93 | 0.51 | 0.95 |  |  | 0.68 | 0 | 0.99 | -0.01 |  | 0.36 | 0.58 | -0.18 | 0.65 | 0.46 | -1 |  |  |  | Growth Rate ([1]; 24 h, replicate number 2): 0.66; Growth Rate ([2]; 6 h, replicate number 2): -0.86; Growth Rate ([2]; 12 h, replicate number 1): -0.95; Growth Rate ([2]; 12 h, replicate number 2): 0.01; Growth Rate ([3]; 6 h, replicate number 1): -0.15; Growth Rate ([3]; 12 h, replicate number 1): 0.69; Growth Rate ([3]; 12 h, replicate number 2): 0.27; Growth Rate ([3]; 18 h, replicate number 1): 0.71; Growth Rate ([3]; 18 h, replicate number 2): 0.38; Growth Rate ([3]; 24 h, replicate number 1): 0.78
CN1C2CCCC1CC(Nc1ccccc1Br)C2 (stereo unspecified) |  |  |  |  |  | 0.86 | 0.95 |  | 0.87 | 0.99 |  |  |  |  | 0.92 | 0.99 | -0.9 | 0.67 |  | -0.98 | Growth Rate ([2]; 6 h, replicate number 2): -0.45; Growth Rate ([2]; 12 h, replicate number 1): 0.42; Growth Rate ([2]; 12 h, replicate number 2): 0.88
Clc1ccccc1C(c1ccccc1)(c1ccccc1)n1cccn1 | 0.24 | 0.78 | 0.9 | 1 | 0.91 |  |  |  | 0.43 | 0.9 |  | 0.65 | 0.94 | 0.46 | 0.54 |  | -0.86 |  | 0.27 and 0.15 | 0.64 | Growth Rate ([2]; 12 h, replicate number 2): 0.39; Growth Rate ([3]; 6 h, replicate number 1): 0.05; Growth Rate ([3]; 12 h, replicate number 1): 0.26; Growth Rate ([3]; 18 h, replicate number 1): 0.83; Growth Rate ([3]; 24 h, replicate number 1): 0.89
CCOC(=O)c1ncn2c1[C@@H]1CCCN1C(=O)c1cc(OC)ccc1-2 | 0.4 | 0.92 |  | 0.9 | 0.81 | 0.48 |  | 0.63 | 0.49 |  | -0.46 |  |  | 0.09 |  | 0.95 | -0.82 | -0.85 | 1 | 0.02 | Growth Rate ([2]; 6 h, replicate number 2): 0.2; Growth Rate ([3]; 12 h, replicate number 2): 0.89; Growth Rate ([3]; 18 h, replicate number 1): 0.83; Growth Rate ([3]; 24 h, replicate number 1): 0.82
Cc1cccc([C@H]2CC[C@@H](N3CCN(c4cccnc4)CC3)CC2)c1.O=C(O)C(F)(F)F.O=C(O)C(F)(F)F |  | 1 |  | 0.97 | 0.93 |  |  | 0.58 | 0.98 | 0.45 |  |  |  |  | 0.94 | 0.79 | -0.63 | -0.88 |  | -0.37 | Growth Rate ([2]; 6 h, replicate number 2): -0.32; Growth Rate ([3]; 12 h, replicate number 2): 0.66; Growth Rate ([3]; 18 h, replicate number 2): 0.73
